Experimental data reported in ChEMBL document CHEMBL4765419, “Design, synthesis and bioactivity evaluation of novel arylalkene-amide derivatives as dual-target antifungal inhibitors” (Eur J Med Chem, 2020).
Active and inactive are the calls of the source. No cut-off for these calls is given here.

What was measured:
[1] = test system: Candida albicans; experiment: Antifungal activity against Candida albicans assessed as inhibition of microbial growth by two fold broth microdilution method; type: functional
[2] = test system: Pichia kudriavzevii; experiment: Antifungal activity against Candida krusei assessed as inhibition of microbial growth by two fold broth microdilution method; type: functional
[3] = test system: Nakaseomyces glabratus; experiment: Antifungal activity against Candida glabrata assessed as inhibition of microbial growth by two fold broth microdilution method; type: functional
[4] = test system: Aspergillus fumigatus; experiment: Antifungal activity against Aspergillus fumigatus assessed as inhibition of microbial growth by two fold broth microdilution method; type: functional
[5] = test system: Candida tropicalis; experiment: Antifungal activity against Candida tropicalis assessed as inhibition of microbial growth by two fold broth microdilution method; type: functional
[6] = test system: Candida albicans; experiment: Antifungal activity against fluconazole-resistant Candida albicans 17# assessed as inhibition of microbial growth by two fold broth microdilution method; type: functional
[7] = test system: Candida albicans; experiment: Antifungal activity against fluconazole-resistant Candida albicans CaR assessed as inhibition of microbial growth by two fold broth microdilution method; type: functional
[8] = test system: Candida albicans; experiment: Antifungal activity against fluconazole-resistant Candida albicans 632 assessed as inhibition of microbial growth by two fold broth microdilution method; type: functional
[9] = test system: Candida albicans; experiment: Antifungal activity against fluconazole-resistant Candida albicans 901 assessed as inhibition of microbial growth by two fold broth microdilution method; type: functional
[10] = test system: Candida albicans; experiment: Antifungal activity against fluconazole-resistant Candida albicans 904 assessed as inhibition of microbial growth by two fold broth microdilution method; type: functional
[11] = test system: Candida albicans; experiment: Antifungal activity against Candida albicans ATCC SC5314 assessed as decrease in fungal cell density by polarizing microscopy; type: functional, organism-based
[12] = test system: Candida albicans SC5314; experiment: Inhibition of CYP51 in Candida albicans ATCC SC5314 assessed as ergosterol level at 4 ug/ml incubated for 16 hrs by LC/MS analysis (reference value: 79.43 %); set-up: scale not given: the % may be the effect or the level left; settings: dose 4.0 µg/ml
[13] = test system: Candida albicans SC5314; experiment: Inhibition of CYP51 in Candida albicans ATCC SC5314 assessed as lanosterol level at 4 ug/ml incubated for 16 hrs by LC/MS analysis (reference value: 6.62 %); set-up: scale not given: the % may be the effect or the level left; settings: dose 4.0 µg/ml
[14] = test system: Candida albicans SC5314; experiment: Inhibition of CYP51 in Candida albicans ATCC SC5314 assessed as eburicol level at 4 ug/ml incubated for 16 hrs by LC/MS analysis (reference value: 4.67 %); set-up: scale not given: the % may be the effect or the level left; settings: dose 4.0 µg/ml
[15] = test system: Candida albicans SC5314; experiment: Inhibition of CYP51 in Candida albicans ATCC SC5314 assessed as squalene level at 4 ug/ml incubated for 16 hrs by LC/MS analysis (reference value: 2.25 %); set-up: scale not given: the % may be the effect or the level left; settings: dose 4.0 µg/ml
[16] = test system: Candida albicans SC5314; experiment: Inhibition of CYP51 in Candida albicans ATCC SC5314 assessed as unidentified sterol level at 4 ug/ml incubated for 16 hrs by LC/MS analysis (reference value: 7.03 %); set-up: scale not given: the % may be the effect or the level left; settings: dose 4.0 µg/ml
[17] = test system: Candida albicans SC5314; experiment: Inhibition of SE/CYP51 in Candida albicans ATCC SC5314 assessed as ergosterol level at 4 ug/ml incubated for 16 hrs by LC/MS analysis (reference value: 79.43 %); set-up: scale not given: the % may be the effect or the level left; settings: dose 4.0 µg/ml
[18] = test system: Candida albicans SC5314; experiment: Inhibition of SE/CYP51 in Candida albicans ATCC SC5314 assessed as lanosterol level at 4 ug/ml incubated for 16 hrs by LC/MS analysis (reference value: 6.62 %); set-up: scale not given: the % may be the effect or the level left; settings: dose 4.0 µg/ml
[19] = test system: Candida albicans SC5314; experiment: Inhibition of SE/CYP51 in Candida albicans ATCC SC5314 assessed as eburicol level at 4 ug/ml incubated for 16 hrs by LC/MS analysis (reference value: 4.67 %); set-up: scale not given: the % may be the effect or the level left; settings: dose 4.0 µg/ml
[20] = test system: Candida albicans SC5314; experiment: Inhibition of SE/CYP51 in Candida albicans ATCC SC5314 assessed as squalene level at 4 ug/ml incubated for 16 hrs by LC/MS analysis (reference value: 2.25 %); set-up: scale not given: the % may be the effect or the level left; settings: dose 4.0 µg/ml
[21] = test system: Candida albicans SC5314; experiment: Inhibition of SE/CYP51 in Candida albicans ATCC SC5314 assessed as unidentified sterol level at 4 ug/ml incubated for 16 hrs by LC/MS analysis (reference value: 7.03 %); set-up: scale not given: the % may be the effect or the level left; settings: dose 4.0 µg/ml
[22] = Stability in human plasma incubated for 60 mins; type: ADME, cell-free; settings: read-out: Stabilty
[23] = Stability in human plasma incubated for 120 mins; type: ADME, cell-free; settings: read-out: Stabilty
[24] = test system: Candida albicans; experiment: In vivo antifungal activity against Candida albicans infected in mouse assessed as reduction in tissue infection injected via abdomen for 7 days by H and E staining based histological analysis; type: functional, organism-based; settings: time 7.0 day
[25] = test system: Candida albicans; experiment: In vivo antifungal activity against Candida albicans infected in mouse assessed as uniform cell distribution injected via abdomen for 7 days by H and E staining based histological analysis; type: functional, organism-based; settings: time 7.0 day
[26] = test system: Candida albicans; experiment: In vivo antifungal activity against Candida albicans infected in mouse assessed as disappearance of infected positions injected via abdomen for 7 days by H and E staining based histological analysis; type: functional, organism-based; settings: time 7.0 day
[27] = test system: Candida albicans; experiment: In vivo antifungal activity against Candida albicans infected in mouse assessed as disappearance of cell nuclear aggregation injected via abdomen for 7 days by H and E staining based histological analysis; type: functional, organism-based; settings: time 7.0 day
[28] = Toxicity in mouse infected with Candida albicans assessed as change in body weight administered via abdomen for 7 days; settings: in vivo, ip, 168 h, time 7 day
[29] = Toxicity in mouse infected with Candida albicans assessed as change in heart morphology administered via abdomen for 7 days by H and E staining based histological analysis; settings: in vivo, ip, 168 h, time 7 day
[30] = Toxicity in mouse infected with Candida albicans assessed as change in liver morphology administered via abdomen for 7 days by H and E staining based histological analysis; settings: in vivo, ip, 168 h, time 7 day
[31] = Toxicity in mouse infected with Candida albicans assessed as change in spleen morphology administered via abdomen for 7 days by H and E staining based histological analysis; settings: in vivo, ip, 168 h, time 7 day
[32] = Toxicity in mouse infected with Candida albicans assessed as change in kidney morphology administered via abdomen for 7 days by H and E staining based histological analysis; settings: in vivo, ip, 168 h, time 7 day
[33] = Toxicity in mouse infected with Candida albicans assessed as change in lung morphology administered via abdomen for 7 days by H and E staining based histological analysis; settings: in vivo, ip, 168 h, time 7 day
[34] = Hepatotoxicity in mouse infected with Candida albicans assessed as aspartate aminotransferase level in plasma administered via abdomen for 7 days (reference value: 109.4 +/-4.8 IU/L); type: toxicity; settings: ip, 168 h, time 7 day
[35] = Hepatotoxicity in mouse infected with Candida albicans assessed as effect on alanine aminotransferase level in plasma administered via abdomen for 7 days (reference value: 102 +/-9.2 IU/L); type: toxicity; settings: ip, 168 h, time 7 day
[36] = Renal toxicity in mouse infected with Candida albicans assessed as effect on blood urea nitrogen level administered via abdomen for 7 days (reference value: 6.7 +/-0.3 mmol/L); settings: in vivo, ip, 168 h, time 7 day
[37] = test system: Candida albicans; experiment: Antifungal activity against Candida albicans ATCC SC5314 assessed as irregular cell structure at 4 ug/ml incubated for 72 hrs by TEM analysis; type: functional, organism-based; settings: dose 4.0 µg/ml
[38] = test system: Candida albicans; experiment: Antifungal activity against Candida albicans ATCC SC5314 assessed as disappearance of fungal cell boundaries at 4 ug/ml incubated for 72 hrs by TEM analysis; type: functional, organism-based; settings: dose 4.0 µg/ml
[39] = test system: Candida albicans; experiment: Antifungal activity against Candida albicans ATCC SC5314 assessed as loss of cell permeability at 4 ug/ml incubated for 72 hrs by TEM analysis; type: functional, organism-based; settings: dose 4.0 µg/ml
[40] = test system: Candida albicans; experiment: Antifungal activity against Candida albicans ATCC SC5314 assessed as leakage of endogenous substances at 4 ug/ml incubated for 72 hrs by TEM analysis; type: functional, organism-based; settings: dose 4.0 µg/ml
[41] = test system: Candida albicans; experiment: Antifungal activity against Candida albicans ATCC SC5314 assessed as vesicles formation at 4 ug/ml incubated for 72 hrs by TEM analysis; type: functional, organism-based; settings: dose 4.0 µg/ml
[42] = test system: Candida albicans; experiment: Antifungal activity against Candida albicans ATCC SC5314 assessed as edema cavitation at 4 ug/ml incubated for 72 hrs by TEM analysis; type: functional, organism-based; settings: dose 4.0 µg/ml
[43] = test system: Candida albicans; experiment: Antifungal activity against Candida albicans ATCC SC5314 assessed as nuclear membrane cleavage at 4 ug/ml incubated for 72 hrs by TEM analysis; type: functional, organism-based; settings: dose 4.0 µg/ml
[44] = test system: Candida albicans; experiment: Antifungal activity against Candida albicans ATCC SC5314 assessed as cell lysis at 4 ug/ml […] by TEM analysis; type: functional, organism-based; settings: dose 4.0 µg/ml

Compound | MIC [1] [mg/L] | MIC [2] [mg/L] | MIC [3] [mg/L] | MIC [4] [mg/L] | MIC [5] [mg/L] | MIC [6] [mg/L] | MIC [7] [mg/L] | MIC [8] [mg/L] | MIC [9] [mg/L] | MIC [10] [mg/L] | Activity [11] | Activity [17] [%] | Activity [18] [%] | Activity [19] [%] | Activity [20] [%] | Activity [21] [%] | remaining at 1 h [22] [%] | remaining at 2 h [23] [%] | Activity [24] | Activity [25] | also measured
OC(Cn1cncn1)(Cn1cncn1)c1ccc(F)cc1F [FLUCONAZOLE] | 0.25 | 1 | 0.5 | > 16 | 0.5 | > 16 | > 16 | > 16 | > 16 | > 16 | Active |  |  |  |  |  |  |  |  |  | Activity [12]: 7.62%; Activity [13]: 13.9%; Activity [14]: 65.5%; Activity [15]: 3.68%; Activity [16]: 9.26%
O=C(/C=C/c1cccc2ccccc12)NC(Cn1ccnc1)C(=O)Nc1ccccc1 (stereo unspecified) | 0.125 | 0.25 | 0.125 | 4 | 0.25 | 4 | 8 | 8 | 8 | > 16 | Active | 10.7 | 14.5 | 40.1 | 29.1 | 5.46 | 89.7 | 84.1 | Active | Active | Activity [26]: Active; Activity [27]: Active; Activity [28]: Non-Toxic; Activity [29]: Non-Toxic; Activity [30]: Non-Toxic; Activity [31]: Non-Toxic; Activity [32]: Non-Toxic; Activity [33]: Non-Toxic; Activity [34]: 101.5 IU/L; Activity [35]: 105 IU/L; Activity [36]: 6.9 mmol/L
O=C(NCc1ccncc1)C(=O)N/N=C/c1cccc2ccccc12 | 0.125 | 0.5 | 0.25 | 2 | 0.125 | 4 | 4 | 8 | 4 | 8 | Active | 8.27 | 11.3 | 32.8 | 42.9 | 4.71 | 92.3 | 86.5 | Active | Active | Activity [37]: Active; Activity [38]: Active; Activity [39]: Active; Activity [40]: Active; Activity [41]: Active; Activity [42]: Active; Activity [43]: Active; Activity [44]: Active; Activity [26]: Active; Activity [27]: Active; Activity [28]: Non-Toxic; Activity [29]: Non-Toxic; Activity [30]: Non-Toxic; Activity [31]: Non-Toxic; Activity [32]: Non-Toxic; Activity [33]: Non-Toxic; Activity [34]: 112.7 IU/L; Activity [35]: 117 IU/L; Activity [36]: 7.1 mmol/L
